Our source for the MIC values is US20220073554A1, “LINCOSAMIDE ANTIBIOTICS AND USES THEREOF” (President and Fellows of Harvard College, priority 2017, published 2022).

In brackets after ≈: the same amount, converted by molar mass.

One experiment has as its system E. faecalis ATCC 29212. In words: MIC against E. faecalis ATCC 29212. The experiment is classed as cell-based. Conditions: Enterococcus faecalis, ATCC29212, read-out: MIC.
For the compound `CSC1O[C@H]([C@H](NC(=O)[C@H]2NC[C@@H]3C=C(c4ccc(F)cc4F)CCO[C@@H]23)[C@H](C)Cl)C(O)[C@@H](O)[C@H]1O` (some centres unmarked) [FSA-511072], the MIC turned out to be 4 µg/mL (≈ 7.29 µM).
On the same count and under the same terms, the figure for `CSC1O[C@H]([C@H](NC(=O)[C@H]2NC[C@@H]3CC(c4ccc(C)cc4)CCO[C@H]32)[C@H](C)Cl)C(O)[C@@H](O)[C@H]1O` (some centres unmarked) [FSA-511044] is 2 µg/mL (≈ 3.78 µM); for `CSC1O[C@H]([C@H](NC(=O)[C@H]2NC[C@@H]3C[C@H](c4ccc(C)cc4)CCO[C@H]32)[C@H](C)Cl)C(O)[C@@H](O)[C@H]1O` (some centres unmarked) [FSA-512079c] it is 2 µg/mL (≈ 3.78 µM).
The same measure, in the same setting: the figure for `CSC1O[C@H]([C@H](NC(=O)[C@H]2NC[C@@H]3C[C@@H](c4ccc(C)cc4)CCO[C@H]32)[C@H](C)Cl)C(O)[C@@H](O)[C@H]1O` (some centres unmarked) [FSA-512079b] is 1 µg/mL (≈ 1.89 µM); for `CSC1O[C@H]([C@H](NC(=O)[C@H]2NC[C@@H]3C=C(C#Cc4ccccc4)CCO[C@@H]23)[C@H](C)Cl)C(O)[C@@H](O)[C@H]1O` (some centres unmarked) [FSA-510002] it is 2 µg/mL (≈ 3.72 µM).

The subject of another experiment is S. aureus MP-549 msr(a) USA 300. Kind of experiment: MIC against S. aureus MP-549 msr(a) USA 300. Conditions: Staphylococcus aureus, USA300, S. aureus MP-549 msr(a) USA 300. The experiment is classed as cell-based.
`CSC1O[C@H]([C@H](NC(=O)[C@H]2NC[C@@H]3C=C(c4ccc(F)cc4F)CCO[C@@H]23)[C@H](C)Cl)C(O)[C@@H](O)[C@H]1O` (some centres unmarked) [FSA-511072]: the MIC was 1 µg/mL (≈ 1.82 µM).
Still for that read-out and setting: next, `CSC1O[C@H]([C@H](NC(=O)[C@H]2NC[C@@H]3CC(c4ccc(C)cc4)CCO[C@H]32)[C@H](C)Cl)C(O)[C@@H](O)[C@H]1O` (some centres unmarked) [FSA-511044]: 0.5 µg/mL (≈ 0.945 µM); `CSC1O[C@H]([C@H](NC(=O)[C@H]2NC[C@@H]3C[C@H](c4ccc(C)cc4)CCO[C@H]32)[C@H](C)Cl)C(O)[C@@H](O)[C@H]1O` (some centres unmarked) [FSA-512079c]: 0.5 µg/mL (≈ 0.945 µM).
Compound `CSC1O[C@H]([C@H](NC(=O)[C@H]2NC[C@@H]3C[C@@H](c4ccc(C)cc4)CCO[C@H]32)[C@H](C)Cl)C(O)[C@@H](O)[C@H]1O` (some centres unmarked) [FSA-512079b] gave an MIC of 0.5 µg/mL (≈ 0.945 µM).

The next experiment relates to S. pyogenes ATCC 19615. In words: MIC against S. pyogenes ATCC 19615. The experiment is classed as cell-based. Conditions: Streptococcus pyogenes, ATCC19615; S. pyogenes ATCC 19615; read-out: MIC.
Take `CSC1O[C@H]([C@H](NC(=O)[C@H]2NC[C@@H]3C=C(c4ccc(F)cc4F)CCO[C@@H]23)[C@H](C)Cl)C(O)[C@@H](O)[C@H]1O` (some centres unmarked) [FSA-511072]: the MIC amounted to 0.95 µg/mL (≈ 1.73 µM).
`CSC1O[C@H]([C@H](NC(=O)[C@H]2NC[C@@H]3CC(c4ccc(C)cc4)CCO[C@H]32)[C@H](C)Cl)C(O)[C@@H](O)[C@H]1O` (some centres unmarked) [FSA-511044]: the MIC is no more than 0.06 µg/mL.
Same read-out and setting: next, `CSC1O[C@H]([C@H](NC(=O)[C@H]2NC[C@@H]3C[C@H](c4ccc(C)cc4)CCO[C@H]32)[C@H](C)Cl)C(O)[C@@H](O)[C@H]1O` (some centres unmarked) [FSA-512079c]: no more than 0.12 µg/mL; `CSC1O[C@H]([C@H](NC(=O)[C@H]2NC[C@@H]3C[C@@H](c4ccc(C)cc4)CCO[C@H]32)[C@H](C)Cl)C(O)[C@@H](O)[C@H]1O` (some centres unmarked) [FSA-512079b]: no more than 0.12 µg/mL.

In another experiment the test system is E. coli MP-9 ΔTolC. In words: MIC against E. coli MP-9 ΔTolC. The format is cell-based. Conditions: Escherichia coli.
`CSC1O[C@H]([C@H](NC(=O)[C@H]2NC[C@@H]3C[C@H](c4ccc(C)cc4)CCO[C@H]32)[C@H](C)Cl)C(O)[C@@H](O)[C@H]1O` (some centres unmarked) [FSA-512079c] had an MIC of 8 µg/mL (≈ 15.1 µM).
Same read-out and setting: the figure for `CSC1O[C@H]([C@H](NC(=O)[C@H]2NC[C@@H]3C[C@@H](c4ccc(C)cc4)CCO[C@H]32)[C@H](C)Cl)C(O)[C@@H](O)[C@H]1O` (some centres unmarked) [FSA-512079b] is 8 µg/mL (≈ 15.1 µM); for `CSC1O[C@H]([C@H](NC(=O)[C@H]2NC[C@@H]3C=C(C#Cc4ccccc4)CCO[C@@H]23)[C@H](C)Cl)C(O)[C@@H](O)[C@H]1O` (some centres unmarked) [FSA-510002] it is greater than 64 µg/mL.

Another experiment relates to S. aureus BAA 977 iErmA. In words: MIC against S. aureus BAA 977 iErmA. The format is cell-based. Conditions: Staphylococcus aureus, BAA977.
In turn, `CSC1O[C@H]([C@H](NC(=O)[C@H]2NC[C@@H]3C=C(c4ccc(F)cc4F)CCO[C@@H]23)[C@H](C)Cl)C(O)[C@@H](O)[C@H]1O` (some centres unmarked) [FSA-511072] yielded an MIC of 1 µg/mL (≈ 1.82 µM).

For the next experiment, the system named is S. aureus MMX 3035 cErmA. In words: MIC against S. aureus MMX 3035 cErmA. The format is cell-based. Conditions: Staphylococcus aureus, MMX3035CERMA; S. aureus MMX 3035 cErmA; read-out: MIC.
For the compound `CSC1O[C@H]([C@H](NC(=O)[C@H]2NC[C@@H]3C=C(c4ccc(F)cc4F)CCO[C@@H]23)[C@H](C)Cl)C(O)[C@@H](O)[C@H]1O` (some centres unmarked) [FSA-511072], the MIC was greater than 64 µg/mL.

The subject of the next experiment is S. pneumoniae ATCC 49619. Kind of experiment: MIC against S. pneumoniae ATCC 49619. The experiment is classed as cell-based. Conditions: Streptococcus pneumoniae, ATCC49619.
`CSC1O[C@H]([C@H](NC(=O)[C@H]2NC[C@@H]3CC(c4ccc(C)cc4)CCO[C@H]32)[C@H](C)Cl)C(O)[C@@H](O)[C@H]1O` (some centres unmarked) [FSA-511044] came in with an MIC of 0.5 µg/mL (≈ 0.945 µM).

The subject of the next experiment is E. coli ATCC 25922. In words: MIC against E. coli ATCC 25922. The format is cell-based. Conditions: Escherichia coli, ATCC25922.
For `CSC1O[C@H]([C@H](NC(=O)[C@H]2NC[C@@H]3C=C(C#Cc4ccccc4)CCO[C@@H]23)[C@H](C)Cl)C(O)[C@@H](O)[C@H]1O` (some centres unmarked) [FSA-510002], the MIC was greater than 64 µg/mL.

The experiment is the same for the next values; noted with them: Escherichia coli, ATCC25922; E. coli ATCC 25922; read-out: MIC.
For the compound `CSC1O[C@H]([C@H](NC(=O)[C@H]2NC[C@@H]3C=C(c4ccc(F)cc4F)CCO[C@@H]23)[C@H](C)Cl)C(O)[C@@H](O)[C@H]1O` (some centres unmarked) [FSA-511072], the MIC was greater than 64 µg/mL.
On to `CSC1O[C@H]([C@H](NC(=O)[C@H]2NC[C@@H]3C[C@H](c4ccc(C)cc4)CCO[C@H]32)[C@H](C)Cl)C(O)[C@@H](O)[C@H]1O` (some centres unmarked) [FSA-512079c], for which the MIC is greater than 128 µg/mL.
With `CSC1O[C@H]([C@H](NC(=O)[C@H]2NC[C@@H]3C[C@@H](c4ccc(C)cc4)CCO[C@H]32)[C@H](C)Cl)C(O)[C@@H](O)[C@H]1O` (some centres unmarked) [FSA-512079b], the MIC is greater than 128 µg/mL.

In a further experiment the test system is S. pyogenes MMX 946 Macrolide-Resistant. Kind of experiment: MIC against S. pyogenes MMX 946 Macrolide-Resistant. The experiment is classed as cell-based. Conditions: Streptococcus pyogenes; S. pyogenes MMX 946 Macrolide-Resistant (MacRes); read-out: MIC.
In the case of `CSC1O[C@H]([C@H](NC(=O)[C@H]2NC[C@@H]3C=C(c4ccc(F)cc4F)CCO[C@@H]23)[C@H](C)Cl)C(O)[C@@H](O)[C@H]1O` (some centres unmarked) [FSA-511072], the MIC was greater than 64 µg/mL.

The next experiment concerns E. coli ATCC 15922. In words: MIC against E. coli ATCC 15922. The experiment is classed as cell-based. Conditions: Escherichia coli, ATCC15922; E. coli ATCC 15922; read-out: MIC.
Take `CSC1O[C@H]([C@H](NC(=O)[C@H]2NC[C@@H]3CC(c4ccc(C)cc4)CCO[C@H]32)[C@H](C)Cl)C(O)[C@@H](O)[C@H]1O` (some centres unmarked) [FSA-511044]: the MIC was greater than 64 µg/mL.

Another experiment concerns H. influenzae ATCC 49247. Kind of experiment: MIC against H. influenzae ATCC 49247. The format is cell-based. Conditions: Haemophilus influenzae, ATCC49247; H. influenzae ATCC 49247; read-out: MIC.
On to `CSC1O[C@H]([C@H](NC(=O)[C@H]2NC[C@@H]3C=C(c4ccc(F)cc4F)CCO[C@@H]23)[C@H](C)Cl)C(O)[C@@H](O)[C@H]1O` (some centres unmarked) [FSA-511072], for which the MIC was greater than 64 µg/mL.

For another experiment, the system named is E. faecalis MMX 847 Macrolide-Resistant. Kind of experiment: MIC against E. faecalis MMX 847 Macrolide-Resistant. The format is cell-based. Conditions: Enterococcus faecalis; E. faecalis MMX 847 Macrolide-Resistant (MacRes); read-out: MIC.
As for `CSC1O[C@H]([C@H](NC(=O)[C@H]2NC[C@@H]3C=C(c4ccc(F)cc4F)CCO[C@@H]23)[C@H](C)Cl)C(O)[C@@H](O)[C@H]1O` (some centres unmarked) [FSA-511072], the MIC was greater than 64 µg/mL.

The next experiment concerns S. aureus ATCC 29213. In words: MIC against S. aureus ATCC 29213. The experiment is classed as cell-based. Conditions: Staphylococcus aureus, ATCC29213.
`CSC1O[C@H]([C@H](NC(=O)[C@H]2NC[C@@H]3C[C@H](c4ccc(C)cc4)CCO[C@H]32)[C@H](C)Cl)C(O)[C@@H](O)[C@H]1O` (some centres unmarked) [FSA-512079c] displayed an MIC of 0.5 µg/mL (≈ 0.945 µM).
As for `CSC1O[C@H]([C@H](NC(=O)[C@H]2NC[C@@H]3C[C@@H](c4ccc(C)cc4)CCO[C@H]32)[C@H](C)Cl)C(O)[C@@H](O)[C@H]1O` (some centres unmarked) [FSA-512079b], the MIC is 0.5 µg/mL (≈ 0.945 µM).

The same experiment, now with this note: Staphylococcus aureus, ATCC29213, S. aureus ATCC 29213; read-out: MIC.
On to `CSC1O[C@H]([C@H](NC(=O)[C@H]2NC[C@@H]3C=C(c4ccc(F)cc4F)CCO[C@@H]23)[C@H](C)Cl)C(O)[C@@H](O)[C@H]1O` (some centres unmarked) [FSA-511072], for which the MIC was 1 µg/mL (≈ 1.82 µM).
Turning to `CSC1O[C@H]([C@H](NC(=O)[C@H]2NC[C@@H]3CC(c4ccc(C)cc4)CCO[C@H]32)[C@H](C)Cl)C(O)[C@@H](O)[C@H]1O` (some centres unmarked) [FSA-511044], the MIC came to 0.23 µg/mL (≈ 0.435 µM).
Still for that read-out and setting: next, `CSC1O[C@H]([C@H](NC(=O)[C@H]2NC[C@@H]3C=C(C#Cc4ccccc4)CCO[C@@H]23)[C@H](C)Cl)C(O)[C@@H](O)[C@H]1O` (some centres unmarked) [FSA-510002]: 0.5 µg/mL (≈ 0.931 µM).
